Measured values from patent publication US11096985B2, “Antimicrobial peptides, their variants and uses” (priority 2015, dated 2021).
Where a SMILES comes first, the peptide text is derived from it. [ ]: non-standard residue; d: D form.

Tests used:
S. aureus COL (MRSA) = experiment: Synergistic activity with Ertapenem (4 μg/ml) against MRSA, MIC; assay type: cell-based, Staphylococcus aureus; conditions: Ertapenem 4 μg/ml; D-form
How it was run: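 Broth microdilution in MH broth with 5.0×10^5 cfu/ml inoculum, 37° C for 20–24 h. MIC was the lowest concentration without visible growth (range 0.125–128 μg/ml). L- and D-form peptides were tested on S. aureus RN4220 and COL (MRSA), alone and with Ertapenem at 4 μg/ml.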

[1] = test system: Escherichia coli (ATCC 25922); assay type: cell-based; conditions: Peptides 50 μg; Gentamycin 5 μg; diameter including the wells
Experimental: (§1) The radial diffusion assay (RDA) was carried out as described by Andersen et al. (2010). Briefly, 30 ml of 1/10 Muller-Hinton broth (MHB) supplemented with 1% agarose and 5.0×10^5 CFU/ml S. aureus or E. coli or K. pneumoniae, P. aeruginosa cells was poured into a single-well omnitray (Nunc) and overlaid with a TSP 96-well plate. […] The peptides were also tested against Fusarium oxysporum and Verticillium dahliae, for which 1/3 potato dextrose agarose was used. To test the synergistic effect of peptides, each peptide was mixed in equimolar concentrations. Mix1 (met1-12), Mix2 (met3, 4 and 5), Mix3 (met 8, 9 and 10), Mix 4 (met11, 12) and Mix5 (8, 9, 10, 11, 12) were prepared and tested against E. coli and S. aureus. Gentamicin and vancomycin were included as positive controls for bacteria and amphotericin B was used as the control for fungi.

[2] = test system: Klebsiella pneumoniae (ATCC 10031); assay type: cell-based; conditions: Peptides 50 μg; Gentamycin 5 μg; diameter including the wells
Experimental: as §1

[3] = test system: Staphylococcus aureus (ATCC 25923); assay type: cell-based; conditions: Peptides 50 μg; Gentamycin 5 μg; diameter including the wells
Experimental: as §1

[4] = test system: Pseudomonas aeruginosa (ATCC 27853); experiment: Radial diffusion assay (RDA) against P. aeruginosa; assay type: cell-based; conditions: Peptides 50 μg; Gentamycin 5 μg; diameter including the wells
Experimental: as §1

[5] = test system: Klebsiella pneumoniae (ATCC 10031); assay type: cell-based
Experimental: (§2) Minimum inhibition concentrations (MICs) were determined against Escherichia coli (ATCC 25922), Staphylococcus aureus (ATCC 25923), Klebsiella pneumoniae (ATCC 10031) and Pseudomonas aeruginosa (ATCC 27853). Also clinical strains of E. coli, K. pneumoniae, E. cloacae, P. aeruginosa, Serratia marcescens, Proteus mirabilis, S. pneumoniae, Acinetobacter baumannii, A. johnsonii and S. aureus were used for MICs assays. Additionally, clinical strains of yeast including Candida albicans, C. glabrata, C. parapsilosis and C. quillermondiae were used. The susceptibility of these microorganisms to Chain peptides were determined using micro broth dilution assay. Colonies of the respective microorganism from Muller Hinton (MH) agar plates incubated overnight were suspended in MH broth media and final concentration of microorganism was adjusted to 5.0×10^5 cfu/ml. An aliquot of 10 μl of each Chain peptide, or gentamicin, tetracycline as reference antibiotics were added in differing concentrations along with 90 μl of bacterial suspension to 96 well polypropylene plates and incubated at 37° C. for 20 to 24 hours. Concentrations of Chain peptides and reference antibiotics ranged from 0.125 to 128 μg/ml and the MICs were recorded as the lowest concentration with no visual growth of bacteria. Similarly, antifungal MICs were tested in Potato dextrose broth.

[6] = test system: Pseudomonas aeruginosa (ATCC 27853); assay type: cell-based
Experimental: as §2

[7] = test system: Escherichia coli, Staphylococcus aureus, Klebsiella pneumoniae and Pseudomonas aeruginosa; experiment: Radial diffusion assay, summary over the bacteria tested; assay type: cell-based; conditions: Gentamicin 5 μg
Experimental: The radial diffusion assay (RDA) was carried out as described by Andersen et al. (2010). Briefly, 30 ml of 1/10 Muller-Hinton broth (MHB) supplemented with 1% agarose and 5.0×10^5 CFU/ml S. aureus or E. coli or K. pneumoniae, P. aeruginosa cells was poured into a single-well omnitray (Nunc) and overlaid with a TSP 96-well plate. One hundred μg of each synthesized peptide was tested. The peptides were also tested against Fusarium oxysporum and Verticillium dahliae, for which 1/3 potato dextrose agarose was used. To test the synergistic effect of peptides, each peptide was mixed in equimolar concentrations. Mix1 (met1-12), Mix2 (met3, 4 and 5), Mix3 (met 8, 9 and 10), Mix 4 (met11, 12) and Mix5 (8, 9, 10, 11, 12) were prepared and tested against E. coli and S. aureus. Gentamicin and vancomycin were included as positive controls for bacteria and amphotericin B was used as the control for fungi.

Compound | MIC against MRSA strains along with Ertapenem, D-peptide (S. aureus COL (MRSA)) [µg/mL] | Inhibition zone, Escherichia coli [1] [mm] | Inhibition zone, Klebsiella pneumoniae [2] [mm] | Inhibition zone, Staphylococcus aureus [3] [mm] | Inhibition zone, Pseudomonas aeruginosa [4] [mm] | Minimum inhibitory concentration, Klebsiella pneumoniae (ATCC 10031) [5] [µg/mL] | Minimum inhibitory concentration, Pseudomonas aeruginosa (ATCC 27853) [6] [µg/mL] | zone of inhibition over the four bacteria [7]
CC(C)C[C@@H](NC(=O)[C@@H](CCCCN)NC(=O)[C@@H](CCCCN)NC(=O)[C@@H](Cc1ccccc1)NC(=O)[C@@H](CC(C)C)NC(=O)[C@@H](Cc1c[nH]c2ccccc12)NC(=O)[C@@H](CCCNC(=N)N)NC(=O)[C@@H](Cc1c[nH]c2ccccc12)NC(=O)[C@@H](CCCCN)NC(=O)[C@@H](CCCNC(=N)N)NC(=O)[C@H](N)CCCCN)C(=O)O [Chain310D] (H-[dK][dR][dK][dW][dR][dW][dL][dF][dK][dK][dL]-OH) | 0.03 | – | – | – | – | – | – | –
Gentamicin [reference compound] | – | 22 | 22 | 24 | 24 | 0.25 | 0.25 | 22-24 mm
